Patent US20090291910A1, “AGENT AND FOOD FOR PREVENTING/IMPROVING FUNCTIONAL DIGESTIVE DISORDER” (AJINOMOTO CO., INC, priority 2004, published 2009)

Key:
stomach emptying [1] = assay: gastric emptying rate, phenol red in 5% casein fluid diet; details: oral in 5% casein fluid diet, 30 min; for stomach emptying rate: FIGS. 7A, 7B, 7C
stomach emptying [2] = assay: stomach emptying, glass beads distribution in stomach and small intestine; type: in vivo, SD rats; details: 1% monosodium glutamate in 5% casein, 10 mL/kg oral; beads 1 hr later, autopsy 30 min later; N=5 vs N=4; FIG. 5
Method: 7-to 9-week-old male SD rats were fasted overnight and applied to the experiment. A test diet was orally administered at a volume of 10 mL/kg and, 1 hr later, about 80 glass beads having a diameter of 1 mm were orally administered. The rats were autopsied 30 min later, and the number of beads present in the stomach and small intestine was counted. The small intestine was divided into 4, and named B1-B4 from the area near the stomach.

[3] = tested on: plasma 5HT and 5HIAA in portal blood; assay: leakage of serotonin and 5HIAA in the portal blood after intragastric administration; type: in vivo, SD rats; details: 450 mM MSG 2 mL oral, 0-60 min
Method: Male SD rats (8-week-old) were used. They were bred in a light-dark control room with a 7:00-19:00 light period. […] The catheter was filled with saline containing 10 unit/mL heparin to prevent hematological coagulation in the catheter. Saline and MSG 450 mM solution were each administered orally by 2 mL using an oral sonde. The blood was drawn every 10 min from 10 min before the administration to 60 min after the administration. To prevent unnecessary platelet activation, blood samples were collected with sufficient attention. […] To the separated plasma was rapidly added an equivalent amount of a mixture (adjusted to pH 2) of acetic acid and hydrochloric acid to eliminate protein. The serotonin (5-HT) amount and 5HIAA amount contained in the supernatant were analyzed by an electric chemical detector (ECD-100, manufactured by Accom Inc.). The analysis conditions were as follows.
Using the aforementioned analysis method, serotonin and 5HIAA of stable metabolite thereof of the same sample were quantitated. […] Each was normalized based on the value at 0 min immediately after administration as 100%. The blood collection time immediately after 2 mL intragastric administration was taken as 0 min.

[4] = tested on: NO release in the stomach mucous membrane; assay: NO release in the stomach mucous membrane during intragastric perfusion (NO electrode); type: in vivo, SD rat
Method: SD rat was subjected to laparotomy with urethane anesthesia, a small incision was made in the anterior stomach and the small intestine, a 2 mm diameter polyethylene tube was inserted, and the perfusate was introduced and discharged with a Perista Pump. The perfusate was heated to 38° C. and the flow rate was 1 mL/min. The NO electrode was maintained under the lamina muscularis mucosae together with a temperature sensor, saline was perfused in the stomach for 2-3 hr, the released NO value was stabilized, and isotonic MSG solution (150 mM) was perfused during the time zone of 14:00-18:00.

[5] = tested on: vagus nerve afferent pathway; details: cited from earlier work

Compound: N[C@@H](CCC(=O)[O-])C(=O)[O-].[Ca+2] [calcium glutamate]
- stomach emptying rate (stomach emptying [1]): promote stomach emptying

Compound: N[C@@H](CCC(=O)O)C(=O)O [glutamic acid]
- distribution of beads in stomach and small intestine versus control group (stomach emptying [2]): tends to contain a smaller number of beads in the stomach and a large number of beads in the small intestine

Compound: N[C@@H](CCC(=O)O)C(=O)[O-].[Na+] [monosodium glutamate]
- relative concentration of plasma 5HT in portal blood versus saline administration ([3]; FIG. 4A): no difference
- relative concentration of plasma metabolite 5HIAA in portal blood versus saline administration ([3]; FIG. 4B): showed an increase beyond the increase by the saline administration group
- NO concentration in the stomach mucous membrane ([4]; MSG (2.5%) perfusion, FIG. 3): confirmed to increase
- latent time of increase in released NO ([4]; isotonic MSG (2.5%) perfused in the stomach): ~15 min
- cases with an increase in the released NO ([4]; isotonic MSG (2.5%, 150 mM) perfused in the stomach): 3 cases out of 20 cases
- activation of the vagus nerve afferent pathway ([5]; administration into the stomach and duodenum): activates the vagus nerve afferent pathway
- activation of the vagus nerve ([5]; intravenous and intraportal administration): does not activate the vagus nerve
- stomach emptying degree with the stomach emptying rate of the control group as 100 (stomach emptying [1]; FIGS. 6A, 6B): promoted stomach emptying

Compound: arginine glutamic acid salt
- comparison of stomach emptying effect with sodium salt (stomach emptying [1]; FIGS. 6A, 6B): promotes stomach emptying from lower doses as compared to sodium salt
- stomach emptying degree with the stomach emptying rate of the control group as 100 (stomach emptying [1]; FIGS. 6A, 6B): promoted stomach emptying

Compound: lysine glutamic acid salt
- stomach emptying rate (stomach emptying [1]): promote stomach emptying
